A value given as a limit tells only on which side of the number the result lay.

The first experiment concerns TFEB. Kind of experiment: TFEB nuclear translocation assay, HeLa wt cells. The experiment is classed as cell-based. Conditions: 2 hrs compound treatment, Table 1 does not say HeLa wt or TRPML1 KO. A digest of the protocol: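 TFEB translocation into the nucleus of HeLa wt cells is scored by high-content immunofluorescence after 2 hrs of compound treatment at 37° C, reported as AC50.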
For `C[C@@H]1CN(CC2CCN(c3c(F)cccc3NS(=O)(=O)c3ccc(S(=N)(=O)N(C)C)cc3)CC2)C[C@H](C)O1` (single isomer, unassigned) [Compound A-811, Rel-N-(2-(4-((2,6-dimethylmorpholino)methyl)piperidin-1-yl)-3-fluorophenyl)-4-(N,N-dimethylsulfamidimidoyl)benzenesulfonamide], the AC50 is at most 2 µM.

The experiment is the same for the next values; noted with them: Homo sapiens, HeLa, 2 h, 2 hrs compound treatment, Table 1 does not say HeLa wt or TRPML1 KO.
For `COCC1(C)CCN(c2ccccc2NS(=O)(=O)c2ccc(S(=O)(=O)N(C)C)cc2)C(C)C1` (stereo not shown) [Compound A-745, N4-{2-[4-(methoxymethyl)-2,4-dimethylpiperidin-1-yl]phenyl}-N1,N1-dimethylbenzene-1,4-disulfonamide], the AC50 was at least 10 µM.

Turning to `CN(C)S(=O)(=O)c1ccc(S(=O)(=O)Nc2cc(Cl)ccc2N2CCOCC2)nc1` [Compound A-330, N2-[5-chloro-2-(morpholin-4-yl)phenyl]-N5,N5-dimethylpyridine-2,5-disulfonamide], the AC50 was at least 10 µM. The same measure, in the same setting: then `C[C@@H]1CN(CC2CCN(c3c(F)cccc3NS(=O)(=O)c3ccc(S(=O)(=O)N(C)C)cc3)CC2)C[C@@H](C)O1` [Compound A-818, N4-[2-(4-{[(2R,6R)-2,6-dimethylmorpholin-4-yl]methyl}piperidin-1-yl)-3-fluorophenyl]-N1,N1-dimethylbenzene-1,4-disulfonamide], with at most 2 µM. The same measure, in the same setting: the value for `COc1ccc(S(=O)(=O)Nc2cnccc2N2CCC(c3ncc(F)cc3F)CC2)cc1` [Compound A-193, N-{4-[4-(3,5-difluoropyridin-2-yl)piperidin-1-yl]pyridin-3-yl}-4-methoxybenzene-1-sulfonamide] was at least 10 µM; that for `CN1CC2(CCN(c3ccccc3NS(=O)(=O)c3ccc(S(=O)(=O)N(C)C)cc3)CC2)C2NCCCC21` (stereo not shown) [Compound A-269, N1,N1-dimethyl-N4-(2-{1′-methyl-octahydrospiro[piperidine-4,3′-pyrrolo[3,2-b]pyridin]-1-yl}phenyl)benzene-1,4-disulfonamide] was at least 10 µM. As for `C[C@@H]1CN(CC2CCN(c3c(F)cccc3NS(=O)(=O)c3ccc(S(=N)(=O)N(C)C)cc3)CC2)C[C@H](C)O1` (stereo partly drawn) [Compound A-769, N-(2-(4-(((2S,6R)-2,6-dimethylmorpholino)methyl)piperidin-1-yl)-3-fluorophenyl)-4-(N,N-dimethylsulfamimidoyl)benzene-sulfonamide], the AC50 was at most 2 µM.

For `Cc1nc(C2CC2)sc1S(=O)(=O)Nc1ccccc1N1CCC(CN2C[C@@H](C)O[C@@H](C)C2)CC1` [Compound A-768, 2-cyclopropyl-N-[2-(4-{[(2R,6S)-2,6-dimethylmorpholin-4-yl]methyl}piperidin-1-yl)phenyl]-4-methyl-1,3-thiazole-5-sulfonamide], the AC50 was at most 2 µM. `CC(C)(C)C(=O)N1CCN(c2ccccc2NS(=O)(=O)c2ccc(S(C)(=O)=O)cc2)CC1` [Compound A-324, N-{2-[4-(2,2-dimethylpropanoyl)piperazin-1-yl]phenyl}-4-methanesulfonylbenzene-1-sulfonamide]: the AC50 is at least 10 µM.

Consider `CN(C)S(=O)(=O)c1ccc(S(=O)(=O)Nc2ccccc2N2CCC(C)(c3ccccc3Cl)CC2)cc1` [Compound A-183, N4-{2-[4-(2-chlorophenyl)-4-methylpiperidin-1-yl]phenyl}-N1,N1-dimethylbenzene-1,4-disulfonamide], for which the AC50 is at most 2 µM. In turn, `Cc1cc(S(=O)(=O)Nc2ccccc2N2CCC3(CC2)COC(C)(C)C3)ccc1F` [Compound A-661, N-(2-{3,3-dimethyl-2-oxa-8-azaspiro[4.5]decan-8-yl}phenyl)-4-fluoro-3-methylbenzene-1-sulfonamide] returned a half-maximal activity concentration (AC50) of 2.01 to 8 µM. In turn, `O=S(=O)(Nc1cccc(F)c1N1CCC(CN2C3COCC2C3)CC1)c1ccc2c(c1)CCC2` [Compound A-876, N-{3-fluoro-2-[4-({3-oxa-6-azabicyclo[3.1.1]heptan-6-yl}methyl)piperidin-1-yl]phenyl}-2,3-dihydro-1H-indene-5-sulfonamide] displayed an AC50 of at least 10 µM. For the compound `CP(C)(=O)c1ccc(S(=O)(=O)Nc2cc(Cl)ccc2N2CCOCC2)cc1` [Compound A-284, N-[5-chloro-2-(morpholin-4-yl)phenyl]-4-(dimethylphosphoryl)benzene-1-sulfonamide], the AC50 is at least 10 µM. The same measure, in the same setting: then `Cc1ccc(F)c(CS(=O)(=O)Nc2ccccc2N2CCC3(CC2)COC(C)(C)C3)c1` [Compound A-679, N-(2-{3,3-dimethyl-2-oxa-8-azaspiro[4.5]decan-8-yl}phenyl)-1-(2-fluoro-5-methylphenyl)methanesulfonamide], with at most 2 µM; and `CNC1(c2ccc(Cl)cc2F)CCN(c2ccccc2NS(=O)(=O)c2ccc(S(=O)(=O)N(C)C)cc2)CC1` [Compound A-212, N4-{2-[4-(4-chloro-2-fluorophenyl)-4-(methylamino)piperidin-1-yl]phenyl}-N1,N1-dimethylbenzene-1,4-disulfonamide], with at most 2 µM. Still for that read-out and setting: then `CC(c1cc(Cl)cnc1N1CCC(CN2CCC(F)(F)CC2)CC1)S(=O)(=O)c1ccc(S(=O)(=O)N(C)C)cc1` (single isomer, unassigned) [Compound A-978, 4-((1-(5-chloro-2-(4-((4,4-difluoropiperidin-1-yl)methyl)piperidin-1-yl)pyridin-3-yl)ethyl)sulfonyl)-N,N-dimethylbenzenesulfonamide], with at most 2 µM; and `CC(c1cccc(F)c1N1CCC(CN2C[C@@H](C)O[C@@H](C)C2)CC1)S(=O)(=O)c1ccc(S(=O)(=O)C(F)F)cc1` (single isomer, unassigned) [Compound A-807, 4-((1-(2-(1-((4-((difluoromethyl)sulfonyl)phenyl)sulfonyl)ethyl)-6-fluorophenyl)piperidin-4-yl)methyl)-2,6-dimethylmorpholine], with at most 2 µM. Same read-out and setting: the value for `CC1(C)CC2(CCN(c3ccccc3NS(=O)(=O)Cc3ccc(C(F)F)cc3)CC2)CO1` [Compound A-716, 1-[4-(difluoromethyl)phenyl]-N-(2-{3,3-dimethyl-2-oxa-8-azaspiro[4.5]decan-8-yl}phenyl)methanesulfonamide] was 2.01 to 8 µM. `COCC1(C)CCN(c2ccccc2NS(=O)(=O)Cc2cccc(F)c2)CC1` [Compound A-594, 1-(3-fluorophenyl)-N-{2-[4-(methoxymethyl)-4-methylpiperidin-1-yl]phenyl}methanesulfonamide] returned an AC50 of 2.01 to 8 µM. On the same count and under the same terms, the value for `CN1Cc2cc(F)ccc2C12CCN(c1ccccc1NS(=O)(=O)c1ccc(S(=O)(=O)N(C)C)cc1)CC2` [Compound A-310, N4-(2-{5-fluoro-2-methyl-2,3-dihydrospiro[isoindole-1,4′-piperidin]-1′-yl}phenyl)-N1,N1-dimethylbenzene-1,4-disulfonamide; formic acid] was at most 2 µM. With `CC(=O)NC1(C)CCN(c2c(F)cccc2NS(=O)(=O)c2ccc(S(=O)(=O)N(C)C)cc2)CC1` [Compound A-795, N-(1-{2-[4-(dimethylsulfamoyl)benzenesulfonamido]-6-fluorophenyl}-4-methylpiperidin-4-yl)acetamide], the AC50 was 8.01 to 9.99 µM.

Regarding `COCC1(C)CCN(c2ccccc2NS(=O)(=O)c2ccc(C(C)(C)C(=O)OC)cc2)CC1` [Compound A-705, methyl 2-[4-({2-[4-(methoxymethyl)-4-methylpiperidin-1-yl]phenyl}sulfamoyl)phenyl]-2-methylpropanoate], the AC50 fell in the range of 8.01 to 9.99 µM.

For the origin of these results see patent US20230104936A1, “TRPML MODULATORS” (Casma Therapeutics, Inc., priority 2019, published 2023).
